From US20240101540A1, “TARGETED PROTEIN DEGRADATION OF PARP14 FOR USE IN THERAPY” (Ribon Therapeutics, Inc., priority 2022, published 2024) come the findings set out here.

The term DC50 denotes the midpoint of the concentration-degradation curve.

Where a name gives a salt, the structure may show the parent alone. Bounds are passed on as bounds.

T1 sequence (Q460N5 whole entry): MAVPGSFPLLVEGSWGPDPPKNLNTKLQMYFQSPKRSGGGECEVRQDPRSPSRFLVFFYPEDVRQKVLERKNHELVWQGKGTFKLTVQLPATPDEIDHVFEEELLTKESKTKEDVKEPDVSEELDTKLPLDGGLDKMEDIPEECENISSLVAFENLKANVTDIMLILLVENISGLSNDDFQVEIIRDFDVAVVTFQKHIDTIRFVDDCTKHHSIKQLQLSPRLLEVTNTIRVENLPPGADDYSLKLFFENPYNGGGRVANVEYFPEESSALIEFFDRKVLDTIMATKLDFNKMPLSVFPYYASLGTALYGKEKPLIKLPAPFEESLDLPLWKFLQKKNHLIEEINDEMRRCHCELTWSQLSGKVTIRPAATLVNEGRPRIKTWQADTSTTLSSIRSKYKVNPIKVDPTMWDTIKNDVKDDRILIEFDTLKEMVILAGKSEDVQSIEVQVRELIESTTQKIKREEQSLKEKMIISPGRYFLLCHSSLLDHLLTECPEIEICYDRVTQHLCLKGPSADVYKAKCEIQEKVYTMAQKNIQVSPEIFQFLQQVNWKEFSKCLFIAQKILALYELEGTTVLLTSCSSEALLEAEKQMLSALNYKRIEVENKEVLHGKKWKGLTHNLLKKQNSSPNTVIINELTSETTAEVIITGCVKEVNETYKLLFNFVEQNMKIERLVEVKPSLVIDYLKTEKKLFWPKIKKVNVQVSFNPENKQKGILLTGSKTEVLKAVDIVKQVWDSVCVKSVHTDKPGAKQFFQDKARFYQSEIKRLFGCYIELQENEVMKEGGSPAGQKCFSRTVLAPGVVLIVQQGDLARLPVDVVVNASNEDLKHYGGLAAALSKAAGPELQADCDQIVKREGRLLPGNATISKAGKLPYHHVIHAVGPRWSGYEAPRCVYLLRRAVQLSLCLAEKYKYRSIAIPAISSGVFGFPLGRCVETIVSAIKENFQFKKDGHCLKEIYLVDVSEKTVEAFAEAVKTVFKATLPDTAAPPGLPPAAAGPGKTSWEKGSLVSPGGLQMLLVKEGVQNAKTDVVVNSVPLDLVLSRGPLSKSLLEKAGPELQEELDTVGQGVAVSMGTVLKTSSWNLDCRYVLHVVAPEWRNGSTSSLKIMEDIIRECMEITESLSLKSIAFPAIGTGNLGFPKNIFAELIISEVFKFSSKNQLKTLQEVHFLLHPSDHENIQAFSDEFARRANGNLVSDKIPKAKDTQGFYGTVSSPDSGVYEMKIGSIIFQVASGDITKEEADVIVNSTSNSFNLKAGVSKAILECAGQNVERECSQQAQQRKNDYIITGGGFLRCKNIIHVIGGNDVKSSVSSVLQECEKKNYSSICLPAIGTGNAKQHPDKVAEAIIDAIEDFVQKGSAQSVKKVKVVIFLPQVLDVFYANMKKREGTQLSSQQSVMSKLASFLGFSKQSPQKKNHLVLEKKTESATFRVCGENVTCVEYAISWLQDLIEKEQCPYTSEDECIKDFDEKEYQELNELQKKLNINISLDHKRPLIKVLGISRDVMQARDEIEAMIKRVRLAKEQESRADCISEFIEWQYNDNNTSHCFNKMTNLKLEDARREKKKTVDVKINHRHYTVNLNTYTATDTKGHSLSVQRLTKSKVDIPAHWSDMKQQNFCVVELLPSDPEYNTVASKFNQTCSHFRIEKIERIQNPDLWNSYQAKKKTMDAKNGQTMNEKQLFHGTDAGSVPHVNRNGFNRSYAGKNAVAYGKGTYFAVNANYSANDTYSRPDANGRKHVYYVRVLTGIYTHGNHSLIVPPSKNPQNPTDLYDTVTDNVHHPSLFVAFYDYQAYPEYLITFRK

The experiment has as its target T1, HiBiT tagged PARP14 (Homo sapiens, UniProt Q460N5).
T1 construct: engineered to contain a HiBiT tag on both alleles of the PARP14 gene; endogenous in cells; host or cells: Jurkat cells stably transfected with LgBiT (Promega), PARP14 locus edited by CRISPR/Cas9
Nature of the experiment: HiBiT assay for the degradation of PARP14 (HiBiT tagged PARP14 in LgBiT expressing Jurkat cells, 2 or 24 hours). The experiment is classed as cell-based. The settings on record: Assay B (Example B): HiBiT tagged PARP14 degradation in LgBiT expressing Jurkat cells, read-out: DC50. The essentials: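 Luminescence from HiBiT–LgBiT complementation served as proxy for endogenous PARP14 level in edited LgBiT Jurkat cells (5,000/well). After 2 or 24 h compound exposure at 37 °C, signal read with Live Cell Substrate, expressed as % of 0.1% DMSO control, and fitted (4-parameter, free Hill) for DC50.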
For the compound `O=C1CCC(N2C(=O)c3cccc4c(N5CCC(N6CC(N7CCC(COc8cc(F)c9c(=O)[nH]c(CSC%10CCOCC%10)nc9c8)CC7)C6)CC5)ccc2c34)C(=O)N1` (centres unmarked) [Example 169, 3-(6-(4-(3-(4-(((5-fluoro-4-oxo-2-(((tetrahydro-2H-pyran-4-yl)thio)methyl)-3,4-dihydroquinazolin-7-yl)oxy)methyl)piperidin-1-yl)azetidin-1-yl)piperidin-1-yl)-2-oxobenzo[cd]indol-1(2H)-yl)piperidine-2,6-dione], the DC50 was under 30 nM.

Take `O=C1CCN(c2cnc3cc(N4CCN(CCN5CCC(COc6cc(F)c7c(=O)[nH]c(CSC8CCOCC8)nc7c6)CC5)CC4)ccn23)C(=O)N1` [Example 209, 1-(7-(4-(2-(4-(((5-fluoro-4-oxo-2-(((tetrahydro-2H-pyran-4-yl)thio)methyl)-3,4-dihydroquinazolin-7-yl)oxy)methyl)piperidin-1-yl)ethyl)piperazin-1-yl)imidazo[1,2-a]pyridin-3-yl)dihydropyrimidine-2,4(1H,3H)-dione diformate]: the DC50 is under 30 nM.

As for `O=C1CCC(Nc2ccc(N3CC4(CC(CN5CCC(COc6cc(F)c7c(=O)[nH]c(CSC8CCOCC8)nc7c6)CC5)C4)C3)c(F)c2)C(=O)N1` (centres unmarked) [Example 227, 3-((3-fluoro-4-(6-((4-(((5-fluoro-4-oxo-2-(((tetrahydro-2H-pyran-4-yl)thio)methyl)-3,4-dihydroquinazolin-7-yl)oxy)methyl)piperidin-1-yl)methyl)-2-azaspiro[3.3]heptan-2-yl)phenyl)amino)piperidine-2,6-dione formate], the DC50 was under 30 nM.

With `Cn1nc(N2CCC(=O)NC2=O)c2cccc(C3CCN(CCN4CCC(COc5cc(F)c6c(=O)[nH]c(COC7CCOCC7)nc6c5)CC4)CC3)c21` [Example 203, 1-(7-(1-(2-(4-(((5-fluoro-4-oxo-2-(((tetrahydro-2H-pyran-4-yl)oxy)methyl)-3,4-dihydroquinazolin-7-yl)oxy)methyl)piperidin-1-yl)ethyl)piperidin-4-yl)-1-methyl-1H-indazol-3-yl)dihydropyrimidine-2,4(1H,3H)-dione], the DC50 is under 30 nM.

As to `Cn1nc(N2CCC(=O)NC2=O)c2cccc(N3CCN(CCN4CCC(COc5cc(F)c6c(=O)[nH]c(CSC7CCOCC7)nc6c5)CC4)CC3)c21` [Example 101, 1-(7-(4-(2-(4-(((5-fluoro-4-oxo-2-(((tetrahydro-2H-pyran-4-yl)thio)methyl)-3,4-dihydroquinazolin-7-yl)oxy)methyl)piperidin-1-yl)ethyl)piperazin-1-yl)-1-methyl-1H-indazol-3-yl)dihydropyrimidine-2,4(1H,3H)-dione], the DC50 is under 30 nM.

Consider `O=C1CCC(Nc2ccc(N3CCC(N4CCC(CCOc5cc(F)c6c(=O)[nH]c(CSC7CCOCC7)nc6c5)CC4)CC3)c(F)c2)C(=O)N1` (centres unmarked) [Example 223, 3-((3-fluoro-4-(4-(2-((5-fluoro-4-oxo-2-(((tetrahydro-2H-pyran-4-yl)thio)methyl)-3,4-dihydroquinazolin-7-yl)oxy)ethyl)-[1,4′-bipiperidin]-1′-yl)phenyl)amino)piperidine-2,6-dione], for which the DC50 is under 30 nM.

Turning to `O=C1CCC(Nc2ccc(N3CCC(N4CCC(COc5cc(F)c6c(=O)[nH]c(CCC7CCOCC7)nc6c5)CC4)CC3)cc2)C(=O)N1` (centres unmarked) [Example 114], the DC50 was under 30 nM.

Regarding `O=C1CCC(Nc2ccc(NC(=O)[C@H]3CCN(CCN4CCC(COc5cc(F)c6c(=O)[nH]c(COC7CCOCC7)nc6c5)CC4)C3)c(F)c2)C(=O)N1` (stereo partly drawn) [Example 199, (3S)-N-(4-((2,6-dioxopiperidin-3-yl)amino)-2-fluorophenyl)-1-(2-(4-(((5-fluoro-4-oxo-2-(((tetrahydro-2H-pyran-4-yl)oxy)methyl)-3,4-dihydroquinazolin-7-yl)oxy)methyl)piperidin-1-yl)ethyl)pyrrolidine-3-carboxamide], the DC50 was under 30 nM.
